Consider one compound from publication PMC7933091 (2021).

SMILES strings stand for the structures.

This test relates to SC-34 (DNA, aptamer) ACCTTAAGTGGGGTTCGGGTGGAGTTTATGGGGT
Nature of the test: ITC, single-site model. The note with it: 20 mM NaCl, 0.5 mM MgCl2; 10 mM Tris, pH 7.4, 23 °C; same value in low-salt PBS.

As for `CCC[C@H](C(=O)c1ccc2c(c1)OCO2)N1CCCC1`, the KD is on record as ~ 300 nM.
